Earlier results as cited in US20190209538A1, “Precision Controlled Load and Release Particles for Post-Operative Pain” (LIQUIDIA TECHNOLOGIES, INC., priority 2016, published 2019).

How the values were obtained:
[1] = room temperature, aqueous system between pH 7.0 and pH 9.0
[2] = in vivo

solubility relative to bupivacaine HCl [1] | clearance rate [2] | Compound
less soluble than bupivacaine HCl | – | CCCCN1CCCCC1C(=O)Nc1c(C)cccc1C (stereo not shown) [bupivacaine free base, bupivacaine]
– | ~0.72 L/min | CCCN1CCCC[C@H]1C(=O)Nc1c(C)cccc1C [ropivacaine]
– | 0.58 L/min | CCCCN1CCCCC1C(=O)Nc1c(C)cccc1C (stereo not shown) [bupivacaine]
– | 0.32 L/min | CCCCN1CCCC[C@H]1C(=O)Nc1c(C)cccc1C [levobupivacaine]
